ChEMBL document CHEMBL1201862, “PubChem BioAssay data set” (2004)
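Growth conditions: 96-well plates. Treatment: test compound, 48 hours, 5 concentrations. Analysis: linear interpolation between bracketing concentrations; unreached endpoints set to highest concentration. GI50 is the concentration that inhibits growth by half.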 Active and inactive are the calls of the source. No stated cut-off is given here; in the data, active = GI50 up to about 1.1 µM and inactive = higher.

Columns and labels:
Assay in all cases: DTP human tumour cell line panel, 48 h
[1] = system: SK-MEL-5
[2] = system: SNB-75
[3] = system: OVCAR-4
[4] = system: SK-OV-3
[5] = system: OVCAR-8
[6] = system: UACC-257
[7] = system: MOLT-4
[8] = system: HCT-116
[9] = system: MDA-MB-231
[10] = system: EKVX
[11] = system: HT-29
[12] = system: SW-620
[13] = system: NCI/ADR-RES
[14] = system: SK-MEL-2
[15] = system: A549
[16] = system: HCT-15
[17] = system: ACHN
[18] = system: T47D
[19] = system: SF-295
[20] = system: LOX IMVI
[21] = system: PC-3
[22] = system: SF-268
[23] = system: Malme-3M
[24] = system: HOP-92
[25] = system: Hs-578T
[26] = system: HOP-62
[27] = system: MDA-N
[28] = system: 786-0
[29] = system: COLO 205
[30] = system: M14
[31] = system: NCI-H460
[32] = system: SR
[33] = system: DU-145
[34] = system: NCI-H522
[35] = system: OVCAR-3
[36] = system: IGROV-1
[37] = system: UACC-62
[38] = system: SN12C
[39] = system: RPMI-8226
[40] = system: K562
[41] = system: HCC 2998
[42] = system: SNB-19
[43] = system: SF-539
[44] = system: NCI-H23
[45] = system: U-251
[46] = system: A498
[47] = system: TK-10
[48] = system: SK-MEL-28
[49] = system: RXF 393
[50] = system: HL-60
[51] = system: NCI-H226
[52] = system: CCRF-CEM
[53] = system: MDA-MB-435
[54] = system: MCF7
[55] = system: KM12
[56] = system: OVCAR-5
[57] = system: UO-31
[58] = system: CAKI-1

Measured: GI50

CC1(C)OC2C(COC(c3ccccc3)(c3ccccc3)c3ccccc3)OC(c3c[nH]c4c(N)ncnc34)C2O1 (stereo not given)
inactive: [1] 1.58 µM | [2] 7.48 µM | [3] 7.78 µM | [4] 4.86 µM | [5] 5.77 µM | [6] 4.68 µM | [7] 1.89 µM | [8] 4.67 µM | [9] 13.1 µM | [10] 8.61 µM | [11] 2.56 µM | [12] 3.25 µM | [13] 9.48 µM | [14] 4.89 µM | [15] 3.18 µM | [17] 2.67 µM | [18] 3.92 µM | [19] 3 µM | [20] 1.6 µM | [21] 1.86 µM | [22] 5.82 µM | [23] 4.92 µM | [24] 5.62 µM | [25] 5.73 µM | [26] 4.86 µM | [27] 3.16 µM | [28] 1.87 µM | [29] 10.7 µM | [30] 2.76 µM | [31] 3.33 µM | [32] 4.06 µM | [33] 5.6 µM | [34] 4.53 µM | [35] 3.13 µM | [36] 4.49 µM | [37] 1.31 µM | [38] 3.92 µM
4.06 µM: [16]

CC(=O)N1CC(C)(C)c2c1cc(C)c(O)c2C
inactive: [39] > 100 µM | [1] > 100 µM | [40] > 100 µM | [3] > 100 µM | [41] > 100 µM | [42] > 100 µM | [43] > 100 µM | [4] > 100 µM | [5] > 100 µM | [44] > 100 µM | [45] > 100 µM | [46] > 100 µM | [6] > 100 µM | [47] > 100 µM | [7] > 100 µM | [8] > 100 µM | [9] > 100 µM | [48] > 100 µM | [10] > 100 µM | [49] > 100 µM | [11] > 100 µM | [12] > 100 µM | [50] 86.9 µM | [13] > 100 µM | [14] > 100 µM | [51] > 100 µM | [15] > 100 µM | [52] > 100 µM | [17] > 100 µM | [18] > 100 µM | [19] > 100 µM | [20] > 100 µM | [21] > 100 µM | [22] > 100 µM | [25] > 100 µM | [26] > 100 µM | [53] > 100 µM | [27] > 100 µM | [28] > 100 µM | [29] > 100 µM | [54] > 100 µM | [55] > 100 µM | [30] > 100 µM | [31] > 100 µM | [33] > 100 µM | [34] > 100 µM | [35] > 100 µM | [36] > 100 µM | [56] > 100 µM | [37] > 100 µM | [57] > 100 µM | [38] > 100 µM
> 100 µM: [16]

COC(=O)[C@@H]1CN(C(=O)c2ccccc2)C(=O)N1C(=O)OCc1ccccc1
inactive: [39] > 100 µM | [1] > 100 µM | [40] > 100 µM | [2] > 100 µM | [3] > 100 µM | [41] > 100 µM | [42] > 100 µM | [43] > 100 µM | [4] > 100 µM | [5] > 100 µM | [44] > 100 µM | [45] > 100 µM | [46] > 100 µM | [6] > 100 µM | [47] > 100 µM | [7] > 100 µM | [8] > 100 µM | [9] > 100 µM | [48] > 100 µM | [10] > 100 µM | [49] > 100 µM | [11] > 100 µM | [12] > 100 µM | [50] > 100 µM | [13] > 100 µM | [14] > 100 µM | [51] > 100 µM | [15] > 100 µM | [52] > 100 µM | [17] > 100 µM | [18] > 100 µM | [19] > 100 µM | [20] > 100 µM | [22] > 100 µM | [23] > 100 µM | [24] > 100 µM | [25] > 100 µM | [26] > 100 µM | [53] > 100 µM | [27] > 100 µM | [28] > 100 µM | [29] > 100 µM | [54] > 100 µM | [55] > 100 µM | [30] > 100 µM | [31] > 100 µM | [32] > 100 µM | [33] > 100 µM | [34] > 100 µM | [35] > 100 µM | [36] > 100 µM | [56] > 100 µM | [58] > 100 µM | [37] > 100 µM | [57] > 100 µM | [38] > 100 µM
> 100 µM: [16]

CC(C)N1[C@@H]2CCCC[C@H]2N(C(C)C)[PH]1=O
> 100 µM: [16]
inactive: [39] > 100 µM | [1] > 100 µM | [40] > 100 µM | [2] > 100 µM | [41] > 100 µM | [43] > 100 µM | [4] > 100 µM | [5] > 100 µM | [44] > 100 µM | [46] > 100 µM | [6] > 100 µM | [47] > 100 µM | [7] > 100 µM | [8] > 100 µM | [10] > 100 µM | [49] > 100 µM | [11] > 100 µM | [12] > 100 µM | [13] > 100 µM | [51] > 100 µM | [15] > 100 µM | [52] > 100 µM | [17] > 100 µM | [18] > 100 µM | [19] > 100 µM | [22] > 100 µM | [24] > 100 µM | [25] > 100 µM | [26] > 100 µM | [53] > 100 µM | [27] > 100 µM | [28] > 100 µM | [29] > 100 µM | [54] > 100 µM | [55] > 100 µM | [30] > 100 µM | [31] > 100 µM | [32] > 100 µM | [33] > 100 µM | [34] > 100 µM | [35] > 100 µM | [56] > 100 µM | [58] > 100 µM | [37] > 100 µM | [57] > 100 µM | [38] > 100 µM
